Tested on: Normal human primary fibroblasts
Assay: Fibronectin release by UV-irradiated normal human primary fibroblasts (Human Magnetic Luminex Assay)
Type: cell-based
Experimental: Normal human primary fibroblasts were seeded in culture well plates at 200,000 cells/cm^2 with DMEM (Dulbecco's Modified Eagle Medium) culture medium. 24 hours later, culture medium was removed, cells were rinsed with PBS (Phosphate Buffered Saline), and fresh PBS was applied to the cells. Cells were then exposed to UV irradiation (from 300 to 400 nm) for a time to cause physical and/or chemical UV-induced change, without exposure to active ingredients. Immediately after irradiation, PBS was removed and the active ingredients creatine, palmitoylTripeptide-5 (Lys-Val-Lys) and bifida ferment lysate diluted in culture medium were applied for 72 hours. Cells were incubated at +37° C. with 5% CO2.
Quantification of fibronectin release was performed by using Human Magnetic Luminex Assays (ref: LXSAHM-03) according to the protocol described by the supplier. Results were expressed in pg/ml.

CN(CC(=O)O)C(=N)N [Creatine]
effect on fibronectin production/levels (in words) (UV-irradiated fibroblasts, 72 hours treatment, FIG. 1): does not appear to exert a positive impact

palmitoylTripeptide-5 (Lys-Val-Lys)
increase in fibronectin production over either no treatment or creatine treatment alone (UV-irradiated fibroblasts, 72 hours treatment): 36.9%
fibronectin production in irradiated cells (fibroblasts exposed to UV (300 to 400 nm), then actives in culture medium for 72 hours): 550K
